Assays:
[1] = system: deposition of melanin pigmentation; experiment: Examination for depigmentation effect: lotion applied to skin after sunlight exposure, judged by the subjects; type: in vivo; details: for DEPIGMENTATION EFFECT / DEPI[…]: lotion with 1.0 weight% compound; for effect to prevent the deposition of melanin pigmentation after the skin was exposed to the sunlight: in words, text summary of the tables, test lotions compared with hydroquinone, tranexamic acid and no compound
Experimental: 60 subjects were disposed under sunlight for 4 hours in summer (2 hours × 2 days). The lotions were applied to skin of medial brachia for once in each morning and evening from 5 days after the day when the skin was exposed to the sun light for eight weeks. The one group consists of 10 subjects and six groups were given for the examination in accordance with the following prescriptions. […] The aqueous phase and the alcohol phase were prepared respectively, and both phase were mixed and dissolved. […] X: The number of subjects who judged the result was "extremely effective" and "effective" were less than 30 %. TABLE 1 Depigmentation effect was examined by using the following external preparations for skin in accordance with the above described condition. […] The alcohol phase and aqueous phase were prepared respectively, and both phase were mixed and dissolved. TABLE 3 Depigmentation effect was examined by using the following external preparations for skin in accordance with the above described condition. […] The alcohol phase and aqueous phase were prepared respectively, and both phase were mixed and dissolved.

face of subjects = experiment: Examination for skin care effect: half-face application against comparison 1, judged by the subjects; type: in vivo, women
Experimental: One group of subjects consists of ten women and 3 groups of the subjects were given for the examination.
The effectiveness of three items (moisturising effect, texture of skin surface, maintenance (one day) of moisturising effect) were evaluated according to the following standards.
Ⓞ: The number of subjects who judged the result was "extremely effective" and "effective" were not less than 80 %. ○: The number of subjects who judged the result was "extremely effective" and "effective" were from 50% to 80%. △: The number of subjects who judged the result was "extremely effective" and "effective" were from 30% to 50%. X: The number of subjects who judged the result was "extremely effective " and "effective" were less than 30%.
Skin care effect of the examples was examined in accordance with the above-mentioned condition.

[2] = TABLE 5, same condition as TABLE 1
[3] = TABLE 6, lotion with 1.0 weight% compound, same condition as TABLE 2
[4] = TABLE 1, skin of medial brachia, morning and evening for eight weeks from 5 days after sunlight exposure (4 hours), 10 subjects per group
[5] = TABLE 3, same condition as TABLE 1
[6] = TABLE 2, lotion with 1.0 weight% compound on left half of face, every morning and night for two weeks, ten women per group
[7] = TABLE 2, maintenance (one day), lotion with 1.0 weight% compound on left half of face, every morning and night for two weeks, ten women per group
[8] = TABLE 4, lotion with 1.0 weight% compound, same condition as TABLE 2

| Molecule | DEPIGMENTATION EFFECT [1, 2] | DEPIGMENTATION EFFECT [1, 4] | effect to prevent the deposition of melanin pigmentation after the skin was exposed to the sunlight [1] | MOISTURISING EFFECT (face of subjects; [6]) | TEXTURE OF SKIN SURFACE (face of subjects; [6]) | MAINTENANCE OF MOISTURISING EFFECT (face of subjects; [7]) | other results |
| --- | --- | --- | --- | --- | --- | --- | --- |
| 4'-hydroxy phenyl trans-4-aminomethyl cyclohexane carboxylate hydrochloride [EXM.3-2] | Ⓞ (The number of subjects who judged the result was "extremely effective" and "effective" were not less than 80%.) |  |  |  |  |  | MAINTENANCE OF MOISTURISING EFFECT (face of subjects; [3]): Ⓞ (The number of subjects who judged the result was "extremely effective" and "effective" were not less than 80 %.); MOISTURISING EFFECT (face of subjects; [3]): Ⓞ (The number of subjects who judged the result was "extremely effective" and "effective" were not less than 80 %.); TEXTURE OF SKIN SURFACE (face of subjects; [3]): Ⓞ (The number of subjects who judged the result was "extremely effective" and "effective" were not less than 80 %.) |
| Oc1ccc(O)cc1 [COMP.2, hydroquinone, reference compound] |  |  |  |  |  |  | DEPI[…] [1, 4]: △ (The number of subjects who judged the result was "extremely effective" and "effective" were from 30% to 50%.); DEPI[…] [1, 5]: △ (The number of subjects who judged the result was "extremely effective" and "effective" were from 30% to 50%.); DEPI[…] [1, 2]: △ (The number of subjects who judged the result was "extremely effective" and "effective" were from 30% to 50%.) |
| NC[C@H]1CC[C@H](C(=O)O)CC1 [COMP.3, tranexamic acid] | △ (The number of subjects who judged the result was "extremely effective" and "effective" were from 30% to 50%.) |  |  |  |  |  | DEPIGMENTATION EFFECT [1, 5]: ○ (The number of subjects who judged the result was "extremely effective" and "effective" were from 50% to 80%.) |
| NC[C@H]1CC[C@H](C(=O)Oc2ccc(O)cc2C(=O)O)CC1 [EXM.1-1, 2-(trans-4-aminomethylcyclohexylcarbonyloxy)-5-hydroxy benzoic acid] |  | Ⓞ (The number of subjects who judged the result was "extremely effective" and "effective" were not less than 80%.) | excellent | Ⓞ (The number of subjects who judged the result was "extremely effective" and "effective" were not less than 80 %.) | Ⓞ (The number of subjects who judged the result was "extremely effective" and "effective" were not less than 80 %.) | Ⓞ (The number of subjects who judged the result was "extremely effective" and "effective" were not less than 80 %.) |  |
| NC[C@H]1CC[C@H](C(=O)Oc2ccc(O)c(C(=O)O)c2)CC1 [EXM.1-2, 5-(trans-4-aminomethylcyclohexylcarbonyloxy)-2-hydroxy benzoic acid] |  | Ⓞ (The number of subjects who judged the result was "extremely effective" and "effective" were not less than 80%.) | excellent | Ⓞ (The number of subjects who judged the result was "extremely effective" and "effective" were not less than 80 %.) | Ⓞ (The number of subjects who judged the result was "extremely effective" and "effective" were not less than 80 %.) | Ⓞ (The number of subjects who judged the result was "extremely effective" and "effective" were not less than 80 %.) |  |
| Cl.NC[C@H]1CC[C@H](C(=O)Oc2ccc(O)cc2C(=O)O)CC1 [EXM.1-3, 2-(trans-4-aminomethylcyclohexylcarbonyloxy)-5-hydroxy benzoic acid hydrochloride] |  | Ⓞ (The number of subjects who judged the result was "extremely effective" and "effective" were not less than 80%.) | excellent | Ⓞ (The number of subjects who judged the result was "extremely effective" and "effective" were not less than 80 %.) | Ⓞ (The number of subjects who judged the result was "extremely effective" and "effective" were not less than 80 %.) | Ⓞ (The number of subjects who judged the result was "extremely effective" and "effective" were not less than 80 %.) |  |
| NC[C@H]1CC[C@H](C(=O)NC[C@H]2CC[C@H](C(=O)O)CC2)CC1 [EXM.2-1, Trans-4-(trans-4-aminomethylcyclohexanecarbonyl) aminomethyl cyclohexane carboxylic acid] |  |  |  |  |  |  | DEPIGMENTATION EFFECT [1, 5]: Ⓞ (The number of subjects who judged the result was "extremely effective" and "effective" were not less than 80%.); MAINTENANCE OF MOISTURISING EFFECT (face of subjects; [8]): Ⓞ (The number of subjects who judged the result was "extremely effective" and "effective" were not less than 80 %.); MOISTURISING EFFECT (face of subjects; [8]): Ⓞ (The number of subjects who judged the result was "extremely effective" and "effective" were not less than 80 %.); TEXTURE OF SKIN SURFACE (face of subjects; [8]): Ⓞ (The number of subjects who judged the result was "extremely effective" and "effective" were not less than 80 %.) |
| NC[C@H]1CC[C@H](C(=O)Oc2ccc(O)cc2)CC1 [EXM.3-1, 4'-hydroxy phenyl trans-4-aminomethyl cyclohexane carboxylate] | Ⓞ (The number of subjects who judged the result was "extremely effective" and "effective" were not less than 80%.) |  |  |  |  |  | MAINTENANCE OF MOISTURISING EFFECT (face of subjects; [3]): Ⓞ (The number of subjects who judged the result was "extremely effective" and "effective" were not less than 80 %.); MOISTURISING EFFECT (face of subjects; [3]): Ⓞ (The number of subjects who judged the result was "extremely effective" and "effective" were not less than 80 %.); TEXTURE OF SKIN SURFACE (face of subjects; [3]): Ⓞ (The number of subjects who judged the result was "extremely effective" and "effective" were not less than 80 %.) |

Reference: EP0604667A1, “TRANEXAMIC ACID DERIVATIVE AND DERMATOLOGIC PREPARATION CONTAINING THE SAME” (SHISEIDO COMPANY LIMITED, priority 1992, dated 1994)
